Source: ChEMBL document CHEMBL5050859, “Gpx4 inhibitors, pharmaceutical compositions thereof, and their use for treating gpx4-mediated diseases” (2021)

Each molecule was assayed on Huh-7 (assay: Antiproliferative activity against human Huh-7 cells after 24 hrs by Cell Titer Glo assay). Conditions: Huh-7, 24 h.
Type: functional, cell-based

Structure (SMILES) | EC50
C=CC(=O)N(c1cccc(Cl)c1)C1(C(=O)NCc2ccccc2)CCOCC1 | > 10000 nM
COc1ccc(N(C(=O)CCl)C(C(=O)NC(C)(C)C)c2cccs2)cc1Cl (stereo not drawn) | 500 nM
O=C(CCl)N(c1ccc2c(c1)OCO2)C1(C(=O)NCc2ccccc2)CCOCC1 | 2000 nM
C#CC(=O)N(c1ccc(CO)cc1)C(C(=O)NC(C)(C)C)c1cccc(N)c1 (stereo not drawn) | 2000 nM
C#CC(=O)N(c1ccc(S(N)(=O)=O)cc1)C(C(=O)NCc1ccccc1)c1cccc(N)c1 (stereo not drawn) | > 10000 nM
C#CC(=O)N(c1ccn2cnnc2c1)C1(C(=O)NCc2ccccc2)CCOCC1 | 500 nM
C#CC(=O)N(c1ccc(CO)cc1)C(C(=O)NC(C)(C)C)c1ccc(N)cc1 (stereo not drawn) | 2000 nM
C#CC(=O)N(c1ccc(OC)cc1OC)C(C(=O)NCC(=O)OCC)c1cccs1 (stereo not drawn) | 500 nM
CC(=O)Nc1cccc(N(C(=O)CCl)C(C(=O)NCCc2ccccc2)c2ccc([N+](=O)[O-])cc2)c1 (stereo not drawn) | 2000 nM
Cn1ncc2cc(N(C(=O)C#CCO)C3(C(=O)NCc4ccccc4)CCOCC3)ccc21 | > 10000 nM
C=CC(=O)N(CCc1ccccc1)C1(C(=O)NCc2ccccc2)CCOCC1 | > 10000 nM
Cn1ncc2cc(N(C(=O)CO)C3(C(=O)NCc4ccccc4)CCOCC3)ccc21 | > 10000 nM
C#CC(=O)N(CCc1ccccc1)C1(C(=O)NCc2ccccc2)CCCC(C(=O)OC)C1 (stereo not drawn) | 100 nM
C#CC(=O)N(c1ccc(CO)cc1)C(C(=O)NCc1ccccc1)c1ccc(N)cc1 (stereo not drawn) | 500 nM
C=C(F)C(=O)N(c1ccc2c(cnn2C)c1)C1(C(=O)NCc2ccccc2)CCOCC1 | > 10000 nM
C#CC(=O)N(c1cccc(C(N)=O)c1)C(C(=O)NCc1ccccc1)c1ccc(N)cc1 (stereo not drawn) | > 10000 nM
C#CC(=O)N(c1cccc(CO)c1)C(C(=O)NCc1ccccc1)c1cccc(N)c1 (stereo not drawn) | 2000 nM
C#CC(=O)N(c1ccc(NS(C)(=O)=O)cc1)C(C(=O)NC(C)(C)C)c1ccc(N)cc1 (stereo not drawn) | > 10000 nM
C#CC(=O)N(c1cccc(OC)c1)C(C(=O)NCc1ccccc1)c1cccc(N)c1 (stereo not drawn) | 100 nM
COc1ccc(N(C(=O)CCl)C(C(=O)NCCc2ccccc2)c2ccc(NC(=O)CO)cc2)cc1Cl (stereo not drawn) | 500 nM
C#CC(=O)N(c1cccc(Cl)c1)C1(C(=O)NCC(=O)OCC)CCOCC1 | 500 nM

Structure (SMILES) | EC50
C#CC(=O)N(c1cccc(Cl)c1)C1(C(=O)NCC(=O)Nc2ccccc2)CCOCC1 | 100 nM
C=C(F)C(=O)N(c1ccc(OC)c(Cl)c1)C(C(=O)NCc1ccccc1)c1cccc(N)c1 (stereo not drawn) | > 10000 nM
C#CC(=O)N(c1ccc2[nH]ccc2c1)C1(C(=O)NCc2ccccc2)CCOCC1 | 2000 nM
C#CC(=O)N(c1cccc(Cl)c1)[C@]1(C(=O)NCc2ccccc2)CC[C@H](O)CC1 | 100 nM
C#CC(=O)N(c1cccc(Cl)c1)C1(C(=O)NCc2ccccc2)CCCC(O)C1 (stereo not drawn) | 2000 nM
C#CC(=O)N(c1ccc(O)cc1)C(C(=O)NC(C)(C)C)c1cccc(N)c1 (stereo not drawn) | 2000 nM
C#CC(=O)N(c1ccc2c(c1)OCO2)C1(C(=O)NCc2ccccc2)CCOCC1 | 100 nM
O=C(C#CCO)N(c1cc(Cl)ccc1Cl)C1(C(=O)NCc2ccccc2)CCOCC1 | > 10000 nM
C#CC(=O)N(c1ccc(S(N)(=O)=O)cc1)C(C(=O)NC(C)(C)C)c1ccc(N)cc1 (stereo not drawn) | > 10000 nM
C#CC(=O)N(c1cccc(Cl)c1)C1(C(=O)NCC(=O)N2CCCC(CO)C2)CCOCC1 (stereo not drawn) | 2000 nM
C#CC(=O)N(c1cccc(Cl)c1)C1(C(=O)NCC(=O)NCc2ccccc2Cl)CCOCC1 | 100 nM
C#CC(=O)N(c1cccc(Cl)c1)C1(C(=O)NCC(=O)N2CCCC(C(=O)OC)C2)CCOCC1 (stereo not drawn) | 100 nM
C#CC(=O)N(c1cccc(Cl)c1)C(C(=O)NCc1ccccc1)c1ccncc1 (stereo not drawn) | 500 nM
C#CC(=O)N(c1ccc(NS(C)(=O)=O)cc1)C(C(=O)NCc1ccccc1)c1ccc(N)cc1 (stereo not drawn) | 2000 nM
COc1ccc(N(C(=O)CCl)C(C(=O)NCc2ccccc2)c2cccs2)cc1Cl (stereo not drawn) | 500 nM
C#CC(=O)N(c1cccc(Cl)c1)C1(C(=O)NCC(=O)NCc2ccccc2O)CCOCC1 | 100 nM
C#CC(=O)N(Cc1cccc(O)c1)C1(C(=O)NCc2ccccc2)CCCC(C(=O)OC)C1 (stereo not drawn) | 100 nM
C#CC(=O)N(CCc1ccccc1)C1(C(=O)NCc2ccccc2)CCCC(C(=O)O)C1 (stereo not drawn) | > 10000 nM
O=C(NCCc1ccccc1)C(c1ccc([N+](=O)[O-])cc1)N(Cc1ccccc1)C(=O)CCl (stereo not drawn) | 2000 nM
CC#CC(=O)N(c1ccc2c(cnn2C)c1)C1(C(=O)NCc2ccccc2)CCOCC1 | > 10000 nM
C#CC(=O)N(c1cccc(S(C)(=O)=O)c1)C(C(=O)NC(C)(C)C)c1ccc(N)cc1 (stereo not drawn) | 2000 nM

Structure (SMILES) | EC50
C#CC(=O)N(c1ccc(O)cc1)C(C(=O)NCc1ccccc1)c1cccc(N)c1 (stereo not drawn) | 2000 nM
C#CC(=O)N(c1cccc(CO)c1)C(C(=O)NCc1ccccc1)c1ccc(N)cc1 (stereo not drawn) | 2000 nM
C#CC(=O)N(Cc1cccc(O)c1)C1(C(=O)NCc2ccccc2)CCCC(C(=O)O)C1 (stereo not drawn) | > 10000 nM
Cn1ncc2cc(N(C(=O)C(F)F)C3(C(=O)NCc4ccccc4)CCOCC3)ccc21 | > 10000 nM
C#CC(=O)N(c1ccc(N)cc1)C(C(=O)NC(C)(C)C)c1ccc(N)cc1 (stereo not drawn) | 2000 nM
C#CC(=O)N(Cc1ccccc1)C(C(=O)NCc1ccccc1)c1cccc(N)c1 (stereo not drawn) | 500 nM
Cn1ncc2cc(N(C(=O)CCBr)C3(C(=O)NCc4ccccc4)CCOCC3)ccc21 | > 10000 nM
C#CC(=O)N(c1ccc(S(N)(=O)=O)cc1)C(C(=O)NCc1ccccc1)c1ccc(N)cc1 (stereo not drawn) | > 10000 nM
O=C(NCCc1ccccc1)C(c1ccc([N+](=O)[O-])cc1)N(C(=O)CCl)c1cccc(O)c1 (stereo not drawn) | 2000 nM
C#CC(=O)N(c1cccc(N)c1)C(C(=O)NCc1ccccc1)c1ccc(N)cc1 (stereo not drawn) | 500 nM
C#CC(=O)N(c1ccc2nncn2c1)C(C(=O)NCc1ccccc1)c1ccccc1 (stereo not drawn) | 100 nM
C#CC(=O)N(c1cccc(Cl)c1)C(C(=O)NCc1ccccc1)C1CCOCC1 (stereo not drawn) | 500 nM
C#CC(=O)N(c1cccc(Cl)c1)C(C(=O)NC(C)(C)C)c1cccc(N)c1 (stereo not drawn) | 100 nM
O=C(C#CCO)N(c1cccc(Cl)c1)C1(C(=O)NCc2ccccc2)CCOCC1 | > 10000 nM
C#CC(=O)N(c1ccn(C)c(=O)c1)C(C(=O)NCc1ccccc1)c1ccccc1 (stereo not drawn) | 2000 nM
C#CC(=O)N(c1ccc(NC(C)=O)cc1)C(C(=O)NC(C)(C)C)c1cccc(N)c1 (stereo not drawn) | 2000 nM
COc1ccc(N(C(=O)CCl)C2(C(=O)NCCc3ccccc3)CCC(F)(F)CC2)cc1Cl | 100 nM
C=CC(=O)N(c1ccc2c(cnn2C)c1)C1(C(=O)NCc2ccccc2)CCOCC1 | > 10000 nM
C#CC(=O)N(c1cccc(-c2cc[nH]n2)c1)C1(C(=O)NCc2ccccc2)CCOCC1 | 100 nM
C#CC(=O)N(c1cccc(C#N)c1)C(C(=O)NCc1ccccc1)c1cccc(N)c1 (stereo not drawn) | 100 nM
C#CC(=O)N(c1ccc(NC(C)=O)cc1)C(C(=O)NC(C)(C)C)c1ccc(N)cc1 (stereo not drawn) | 2000 nM

Further lines, results first:

EC50 | Structure (SMILES)
≤ 100 nM | C#CC(=O)N(c1ccc(OC)cc1)C(C(=O)NCc1ccccc1)c1ccc(N)cc1 (stereo not drawn)
≤ 100 nM | C#CC(=O)N(c1ccc2c(c1)OCO2)C(C(=O)NCc1ccccc1)c1ccccc1 (stereo not drawn)
≤ 100 nM | C#CC(=O)N(c1cccc(Cl)c1)C(C(=O)NCc1ccccc1C#N)c1ccccc1 (stereo not drawn)
100 nM | C#CC(=O)N(c1cccc(Cl)c1)C(C(=O)NCc1ccccc1)c1cccc(CCO)c1 (stereo not drawn)
≤ 100 nM | C#CC(=O)N(c1cccc(Cl)c1)C(C(=O)NCc1ccc(C#N)cc1)c1ccccc1 (stereo not drawn)
≤ 100 nM | C#CC(=O)N(c1ccc(C#N)cc1)C(C(=O)NCc1ccccc1)c1ccc(N)cc1 (stereo not drawn)
≤ 100 nM | C#CC(=O)N(c1cccc(OC)c1)C(C(=O)NCc1ccccc1)c1ccc(N)cc1 (stereo not drawn)
≤ 100 nM | COc1ccc(N(C(=O)CCl)C2(C(=O)NCc3ccccc3)CCC(F)(F)CC2)cc1Cl
100 nM | C#CC(=O)N(c1cccc(F)c1)C(C(=O)NCc1ccccc1)c1cccc(N)c1 (stereo not drawn)
100 nM | C#CC(=O)N(c1cccc2nonc12)C(C(=O)NCc1ccccc1)c1ccccc1 (stereo not drawn)
≤ 100 nM | C#CC(=O)N(c1cccc(C#N)c1)C(C(=O)NCc1ccccc1)c1ccccc1 (stereo not drawn)
≤ 100 nM | C#CC(=O)N(c1cccc(Cl)c1F)C(C(=O)NCc1ccccc1)c1cccc(N)c1 (stereo not drawn)
≤ 100 nM | C#CC(=O)N(c1ccc(C(=O)OC)cc1)C(C(=O)NCc1ccccc1)c1cccc(N)c1 (stereo not drawn)
≤ 100 nM | C#CC(=O)N(c1ccc(Cl)cc1)C(C(=O)NCc1ccccc1)c1ccc(N)cc1 (stereo not drawn)
≤ 100 nM | C#CC(=O)N(c1cccc(Cl)c1)C(C(=O)NCc1ccccc1)c1ccc(F)cc1 (stereo not drawn)
≤ 100 nM | C#CC(=O)N(c1ccc(OC)c(Cl)c1)C(C(=O)NC(C)(C)C)c1ccc(N)cc1 (stereo not drawn)
≤ 100 nM | C#CC(=O)N(c1ccc(C(=O)OC)cc1)C(C(=O)NCc1ccccc1)c1ccc(N)cc1 (stereo not drawn)
≤ 100 nM | C#CC(=O)N(c1ccc(OC)cc1OC)C1(C(=O)NCc2ccccc2)CCOCC1

EC50 | Structure (SMILES)
≤ 100 nM | C#CC(=O)N(c1ccc2c(cnn2C)c1)C1(C(=O)NCc2ccccc2)CCC(=O)CC1
≤ 100 nM | C#CC(=O)N(c1cccc2c1OCO2)C1(C(=O)NCc2ccccc2)CCOCC1
≤ 100 nM | C#CC(=O)N(c1cccc(Cl)c1)C1(C(=O)NCc2cccc(Cl)c2)CCOCC1
≤ 100 nM | C#CC(=O)N(c1cccc2c1CCC2=O)C1(C(=O)NCc2ccccc2)CCOCC1
≤ 100 nM | C#CC(=O)N(c1cccc2cnn(C)c12)C(C(=O)NCc1ccccc1)c1ccccc1 (stereo not drawn)
≤ 100 nM | C#CC(=O)N(c1ccc(OC)cc1)C(C(=O)NCc1ccccc1)c1cccc(N)c1 (stereo not drawn)
≤ 100 nM | C#CC(=O)N(c1cc(Cl)ccc1I)C(C(=O)NCc1ccccc1)c1ccccc1 (stereo not drawn)
≤ 100 nM | C#CC(=O)N(c1ccc2c(ccn2C)c1)C1(C(=O)NCc2ccccc2)CCOCC1
≤ 100 nM | C#CC(=O)N(c1ccc2c(cnn2C)c1)C(C(=O)NCc1ccccc1)c1ccccc1 (stereo not drawn)
≤ 100 nM | C#CC(=O)N(c1ccc2c(cnn2C)c1)C1(C(=O)NCc2ccccc2)CCCOC1 (stereo not drawn)
≤ 100 nM | C#CC(=O)N(c1ccc2c(cnn2C)c1)C1(C(=O)NCc2ccccc2)CCOCC1
≤ 100 nM | C#CC(=O)N(c1ccc2c(c1)C(=O)OC2)C1(C(=O)NCc2ccccc2)CCOCC1
≤ 100 nM | C#CC(=O)N(c1ccc(Cl)c(Cl)c1)C(C(=O)NCc1ccccc1)c1ccc(N)cc1 (stereo not drawn)
≤ 100 nM | C#CC(=O)N(c1ccc2cnn(C)c2c1)C(C(=O)NCc1ccccc1)c1ccccc1 (stereo not drawn)
≤ 100 nM | C#CC(=O)N(c1ccc(C#N)cc1)C(C(=O)NC(C)(C)C)c1ccc(N)cc1 (stereo not drawn)
≤ 100 nM | C#CC(=O)N(c1ccc2c(c1)OC(F)(F)O2)C(C(=O)NCc1ccccc1)c1ccccc1 (stereo not drawn)
≤ 100 nM | C#CC(=O)N(c1ccccc1N1CCOCC1)C1(C(=O)NCc2ccccc2)CCOCC1
